Experimental data reported in US20040097598A1 (priority 2001, published 2004).
pIC50: −log10 of the molar value. Like-named read-outs stand apart in the source and are kept apart here.

Experiments:
[1] = tested on: maximal electroshock seizures; test: maximal electroshock seizures after intraperitoneal acetoacetate; type: in vivo; conditions: 15-30 min after intraperitoneal injection, mice or rats
Source text: (§1) Experiments of Keith and Helmholz involving the thujone model of epileptic seizures seemed to support Wilder's hypothesis (Helmholz & Keith 1930, Keith 1931, 1932a,b). […] The Keith's results and conclusions about anticonvulsant activity of acetoacetate are debatable. […] At the same time, acetoacetate easily decomposes to form acetone.

[2] = tested on: pentylenetetrazole seizures; test: pentylenetetrazole seizures after intraperitoneal acetoacetate; type: in vivo; conditions: 15-30 min after intraperitoneal injection, mice or rats
Source text: as §1

MES seizure = test: maximal electroshock (MES) seizure test; type: in vivo, mice; conditions: for TI (therapeutic index): ratio TD50 (rotorod)/ED50 (MES); for TI (therapeutic index) / anticonvulsant activity: mice; for LogED50 / anticonvulsant activity: MES test; for LogED50: best-fit value, C5 vs C7 comparison; for anticonvulsant activity: intraperitoneal
Description: (§2) Male CF-1 mice, weighing 28-30 g, were used as subjects (Charles River Canada, La Prairie, Quebec, Canada). Three to five subjects per drug dose were used to prescreen each compound for anticonvulsant activity. Prescreening involved injecting subjects with the drug at doses of 3, 6 mmol/kg and assessing activity and toxicity 30 min later. Promising compounds progressed to dose-response studies, which employed at least 50 subjects, 10 subjects per dose.
(§3) Compounds were dissolved in oil and injected intraperitoneally.
Thirty minutes after drug injection, the MES seizure test was administered. We used the procedure of Krall et al. (1978). In brief, a seizure was induced using the electrical current applied via corneal electrodes. The current was set to 50 mA with a 60 Hz sine wave pulse configuration and train duration of 0.2 sec. Seizure protection was defined in this model as a failure to extend the hind limbs to an angle greater than 90 degrees during the tonic period of the convulsion.
Data analysis was performed using GraphPad Prizm software package version 3.02 for Windows (GraphPad Software Inc, San Diego, Calif., USA). Both dose-response and toxicity data were fitted using non-linear sigmoidal dose-response model with variable slope: Y=Bottom+(Top-Bottom)/(1+10^((LogED50—X)*HillSlope)), where Bottom, Top, HillSlope and ED50 were the fitting parameters, X was the logarithm of drug concentration, and Y was the response parameter. ED50 and TD50, which are the concentrations that give a response in 50% subjects in seizure and toxicity tests, were determined as best-fit values. Therapeutic index (TI) was calculated as a ratio of TD50/ED50.

[3] = tested on: neurological deficit (rotorod); test: rotorod toxicity test; type: in vivo; conditions: dose giving rotorod failure in 50% subjects, about 25 min after intraperitoneal injection in oil, male CF-1 mice
Description: as §2, §3
The test was administered about 25 minutes after the injection. In brief, the diameter of a rotating rod was about 5 cm and the number of revolutions per minute was set at 6 rpm. Mice were placed on the rod so that it was rotated toward the animal. Animals that were not able to maintain their equilibrium on the rod for 1 min were again put on the rod a further two times.
Both dose-response and toxicity data were fitted using non-linear sigmoidal dose-response model with variable slope: Y=Bottom+(Top-Bottom)/(1+10^((LogED50—X)*HillSlope)), where Bottom, Top, HillSlope and ED50 were the fitting parameters, X was the logarithm of drug concentration, and Y was the response parameter. […] Therapeutic index (TI) was calculated as a ratio of TD50/ED50.

[4] = tested on: thujone model of epileptic seizures; conditions: cited from earlier work
[5] = target: nicotinic acetylcholine receptors; conditions: inhibition of acetylcholine ion channel, Alifimoff et al. (1993); cited from earlier work
[6] = tested on: threshold pentylenetetrazole (PTZ) model; test: threshold pentylenetetrazole (PTZ) model, acetone (FIG. 3); type: in vivo
Source text: (§4) The amygdala-kindled focus is a model of complex partial seizures in humans (Albright & Burnham 1980). These are notoriously drug resistant.
(§5) The AY-9944-induced seizures were quantified by measurement of the onset-to-offset durations of the slow spike-and-wave discharge (SWD) combined over the 20-min intervals. In the AY-9944 model, average ‘% SWD decrease’ was the response parameter.
(§6) Compounds may be examined for their efficacy as anticonvulsants using a number of different animal models, including the maximal electroshock (MES) model (human analog: tonic-clonic seizures) as described in Krall et al. (1978) and in Example 1 herein, the threshold pentylenetetrazole (PTZ) model (human analog: absence seizures) as described in Krall et al. (1978), the amygdala-kindling model (human analog: complex partial seizures with secondary generalization) as described in Albright & Burnham (1980), and the AY-9944 model (human analog, a typical absence, a component of the Lennox-Gastaut syndrome) as described in Cortez et al. (2001). The compounds may also be tested for their toxicity using standard assays, such as the standard rotorod assay as described in Dunham & Miya (1957) and Wlaz & Loscher (1998) and in Example 1 herein.

[7] = tested on: semicarbizide-induced convulsions; conditions: given orally to mice; cited from earlier work
[8] = tested on: maximal electroshock (MES) model; test: maximal electroshock (MES) model, acetone (FIG. 3); type: in vivo
Source text: as §4, §5, §6

[9] = tested on: amygdala-kindled seizures; test: amygdala-kindling model, acetone (FIG. 3)
Source text: as §4, §5, §6

[10] = tested on: convulsions induced by isonicotinic acid; conditions: pretreatment, rats; cited from earlier work
AY-9944-induced seizures = test: AY-9944 model, acetone (FIG. 3); type: in vivo
Source text: as §4, §5, §6

seizures = test: anticonvulsant action of the ketone bodies; conditions: in vivo
Source text: The present inventors have studied the mechanism of action of the ketogenic diet in a series of animal experiments.

[11] = tested on: electrically evoked seizure; conditions: exposed for 4 h to air containing acetone vapors; cited from earlier work
[12] = tested on: convulsions induced by electroshock; conditions: pretreatment, rats; cited from earlier work
[13] = Mus musculus, ip, 0.5 h, dose giving seizure protection in 50% subjects, MES test 30 min after intraperitoneal injection in oil, male CF-1 mice, read-out: ED50
[14] = mouse, in vivo, ip, read-out: TD50
[15] = dose giving seizure protection in 50% subjects, MES test 30 min after intraperitoneal injection in oil, male CF-1 mice
[16] = given chronically for 28 days, rats

Compound | ED50 (MES seizure; [13]) [µmol/kg] | TI (therapeutic index) (MES seizure) | TD50 [3, 14] [µmol/kg] | other results
CC(=O)CC(=O)O [Acetoacetate] | – | – | – | effect against maximal electroshock seizures [1]: not effective; effect against pentylenetetrazole seizures [2]: not effective
CCCCCC(=O)CCC [4-Nonanone] | 5000 | 3.3 | 16300 | –
CCCCCCCCC(C)O (centres unmarked) [2-Decanol] | – | Not Active | – | ED50 (MES seizure; [15]): Not Active; TD50 [3]: Not Active
CCC(=O)CC [3-Pentanone] | 3300 | 2.3 | 7600 | LogED50 (MES seizure): LogED50 = 0.5124
CCCC(CCC)C(=O)O [valproate] | 1400 | 2.7 | 3800 | –
CCCCCCCC(C)O (centres unmarked) [2-Nonanol] | 1200 | 4.3 | 5000 | –
2-Butanone | – | 1.7 | – | ED50 (MES seizure; [15]): 5800 µmol/kg; TD50 [3]: 10000 µmol/kg
COCC(C)=O [Methoxyacetone] | – | – | – | anticonvulsant activity (MES seizure): absence of anticonvulsant activity
CCCCCCCCCC(C)=O [2-Undecanone] | – | Not Active | – | ED50 (MES seizure; [15]): Not Active; TD50 [3]: Not Active
CC(=O)CC(=O)O [acetoacetic acid] | – | – | – | anticonvulsant effect [4]: most marked anticonvulsant effects
CC(O)CCCO (centres unmarked) [1,4-Pentanediol] | – | – | – | anticonvulsant activity (MES seizure): absence of anticonvulsant activity
CCCCC(=O)CCCC [5-Nonanone] | 3600 | 3.6 | 13200 | –
CCCCCCCCC(C)=O [2-Decanone] | – | Not Active | – | ED50 (MES seizure; [15]): Not Active; TD50 [3]: Not Actuve
CCCCCCCCC=O [Nonanal] | – | – | – | anticonvulsant activity (MES seizure): inactive as anticonvulsants
CCCCC(C)=O [2-Hexanone] | – | 1.8 | 4400 | ED50 (MES seizure; Mus musculus, ip, 0.5 h): 2400 µmol/kg
CCCC(C)=O [2-Pentanone] | – | 2.2 | 7200 | LogED50 (MES seizure): LogED50 = 0.5176; ED50 (MES seizure; Mus musculus, ip, 0.5 h): 3300 µmol/kg
CCCCCC=O [Hexanal] | – | – | – | anticonvulsant activity (MES seizure): inactive as anticonvulsants

Compound | ED50 (MES seizure; [13]) [µmol/kg] | TI (therapeutic index) (MES seizure) | TD50 [3, 14] [µmol/kg] | other results
CCCCCCCC(C)=O [2-Nonanone] | 1700 | 9.4 | 15900 | –
CCCCCC(=O)CCCCC [6-Undecanone] | – | Not Active | – | ED50 (MES seizure; [15]): Not Active; TD50 [3]: Not Active
CCCC(C)O (centres unmarked) [2-Pentanol] | 1600 | 3.7 | 5700 | LogED50 (MES seizure): LogED50 = 0.2331
CCC(C)O (centres unmarked) [2-butanol] | – | – | – | pIC50 [5]: 1.15 to 1.22
CC(=O)CC(C)(C)O [Diacetone] | – | – | – | anticonvulsant activity (MES seizure; listed as diacetone alcohol): absence of anticonvulsant activity
CCCCCCC(=O)CC [3-Nonanone] | 9600 | 2.2 | 20900 | –
CCCCCC(C)=O [2-Heptanone] | 2800 | 2.2 | 6000 | LogED50 (MES seizure): LogED50 = 0.4447
CCCCCCC(C)=O [2-Octanone] | 3400 | 1.8 | 6000 | –
CCCC(=O)CCC [4-Heptanone] | 2000 | 2.4 | 4700 | LogED50 (MES seizure): LogED50 = 0.2981
CCCCCCCCC [Nonane] | – | – | – | anticonvulsant activity (MES seizure): inactive as anticonvulsant
CC(O)CC(=O)O (stereo not drawn) [Beta-hydroxybutyrate, beta-hydroxybutyrate] | – | – | – | anticonvulsant effect [4]: not anticonvulsant
CCCCCC(C)O (centres unmarked) [2-Heptanol] | 1300 | 3.9 | 5100 | LogED50 (MES seizure): LogED50 = 0.1197
CCCCOC(C)=O [Butyl acetate] | – | – | – | anticonvulsant activity (MES seizure): Series V - Inactive analogues
CCCCCCC(C)O (centres unmarked) [2-Octanol] | 2000 | 1.9 | 3900 | –
CC(=O)CC(=O)[O-].[Na+] [sodium acetoacetate] | – | – | – | anticonvulsant effect [4]: most marked anticonvulsant effects
CCOC(=O)CC(C)=O [Ethyl acetoacetate] | – | – | – | anticonvulsant activity (MES seizure): absence of anticonvulsant activity
Acetone | – | – | – | seizure suppression [6]: suppresses seizures; semicarbizide-induced convulsions and mortality [7]: reduce; seizure suppression [8]: suppresses seizures; seizure suppression ([9]; amygdala-kindling model): suppresses seizures; development of kindled seizures [9, 16]: significantly delayed; tolerability [9, 16]: well tolerated; effect against the kindled amygdala focus ([9]; sub-toxic doses): effective; protection against clonic-tonic convulsions [10]: protected; ED50 (MES seizure; [15]): 16200 µmol/kg; ED50 (MES seizure; dose giving seizure protection in 50% subjects, MES test 30 min after intraperitoneal injection in oil, male CF-1 mice, listed as acetone): 16000 µmol/kg; seizure suppression (AY-9944-induced seizures): suppresses seizures; anticonvulsant (seizures): anticonvulsant; TD50 [3]: 35200 µmol/kg; rats in which electrically evoked seizure is inhibited [11]: 50%; protection against clonic-tonic convulsions [12]: protected
